Assay results as given in BigSolDB 2.1.

Cc1ccc(C(=O)O)cc1
solubility (mole fraction)
Settings	278.15 K	283.15 K	288.15 K	293.15 K	298.15 K	303.15 K	308.15 K	313.15 K	318.15 K	323.15 K
in acetone	0.0354	0.041	0.0469	0.0544	0.062	0.0728	0.0838	0.0943	0.11	0.125
in acetonitrile	0.00596	0.0068	0.00776	0.0087	0.00976	0.0112	0.0127	0.0146	0.0163	0.0187
in ethanol	0.0272	0.0308	0.0346	0.0396	0.0442	0.05	0.0549	0.0603	0.0684	0.0765
in isopropanol	0.0397	0.0437	0.0488	0.0528	0.0588	0.0648	0.0715	0.0779	0.0868	0.0959
in methanol	0.0354	0.041	0.0485	0.0568	0.0636	0.0744	0.0865	0.0999	0.115	0.132
in n-butanol	0.0359	0.0396	0.0444	0.051	0.0578	0.0651	0.0735	0.0836	0.094	0.105
